According to patent publication US12077503B2, “Substituted cyclic amides and their use as herbicides” (FMC CORPORATION, priority 2015, dated 2024):
Like-named read-outs stand apart in the source and are kept apart here.

Assays:
Experiment in all cases: Test A postemergence
Assay type in all cases: in vivo
[1] = system: Kochia (Kochia scoparia); conditions: Bassia scoparia, post-emergence, 240 h; for pest or weed control at 125 g/ha: 125 g ai/ha
How it was run: (§1)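 Compounds were formulated in a non-phytotoxic solvent mixture with surfactant and applied as a preemergence directed soil spray after seeding, or sprayed postemergence over plants 2 to 10 cm tall at the one- to two-leaf stage. Evaluation after about 10 d compared treated with untreated controls, using a scale from 0 (no effect) to 100 (complete control).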

[2] = system: corn (Zea mays); conditions: Zea mays, post-emergence, 240 h; for Corn plant response rating (crop injury, 0 = no effect, 100 = complete kill) at 125 g/ha / plant injury at 125 g/ha: 125 g ai/ha; for Corn plant response rating (crop injury, 0 = no effect, 100 = complete kill) at 125 g/ha: visual injury after approximately 10 d; for plant injury at 125 g/ha: read-out: Corn plant response rating (0 to 100 scale); for plant injury at 500 g/ha: 0 to 100 scale, 0 is no effect, 100 is complete control, read-out: Corn plant response rating
How it was run: as §1

[3] = system: ryegrass, Italian (Italian ryegrass, Lolium multiflorum); conditions: Lolium multiflorum, post-emergence, 240 h; for pest or weed control at 125 g/ha: 125 g ai/ha; for pest or weed control at 500 g/ha: 500 g ai/ha
How it was run: as §1

[4] = system: blackgrass (Alopecurus myosuroides); conditions: Alopecurus myosuroides, post-emergence, 240 h; for pest or weed control at 125 g/ha: 125 g ai/ha; for pest or weed control at 500 g/ha: 500 g ai/ha
How it was run: as §1

[5] = system: ragweed (common ragweed, Ambrosia elatior); conditions: Ambrosia artemisiifolia, post-emergence, 240 h; for pest or weed control at 125 g/ha: 125 g ai/ha; for pest or weed control at 500 g/ha: 500 g ai/ha
How it was run: as §1

[6] = system: pigweed (Amaranthus retroflexus); conditions: Amaranthus retroflexus, post-emergence, 240 h; for pest or weed control at 125 g/ha: 125 g ai/ha; for pest or weed control at 500 g/ha: 500 g ai/ha
How it was run: as §1

[7] = postemergence, visual injury after approximately 10 d, 0 to 100 scale (0 no effect, 100 complete control), read-out: Plant response rating, Kochia
[8] = postemergence, 0 to 100 scale (0 no effect, 100 complete control)
[9] = postemergence, visual injury after approximately 10 d, 0 to 100 scale (0 no effect, 100 complete control), read-out: Plant response rating, Ryegrass, Italian
[10] = postemergence, visual injury after approximately 10 d, 0 to 100 scale (0 no effect, 100 complete control), read-out: Plant response rating, Blackgrass
[11] = postemergence, visual injury after approximately 10 d, 0 to 100 scale (0 no effect, 100 complete control), read-out: Plant response rating, Ragweed
[12] = postemergence, visual injury after approximately 10 d, 0 to 100 scale (0 no effect, 100 complete control), read-out: Plant response rating, Pigweed
[13] = postemergence, visual injury vs untreated controls after approx. 10 d, 0 = no effect, 100 = complete control
[14] = postemergence, visual injury vs untreated controls after approx. 10 d, 0 = no effect, 100 = complete control, read-out: Ryegrass, Italian plant response rating (0 to 100 scale)
[15] = postemergence, 0 to 100 scale, 0 is no effect, 100 is complete control, read-out: Ryegrass, Italian plant response rating
[16] = postemergence, visual injury vs untreated controls after approx. 10 d, 0 = no effect, 100 = complete control, read-out: Blackgrass plant response rating (0 to 100 scale)
[17] = postemergence, 0 to 100 scale, 0 is no effect, 100 is complete control, read-out: Blackgrass plant response rating
[18] = postemergence, visual injury vs untreated controls after approx. 10 d, 0 = no effect, 100 = complete control, read-out: Ragweed plant response rating (0 to 100 scale)
[19] = postemergence, 0 to 100 scale, 0 is no effect, 100 is complete control, read-out: Ragweed plant response rating
[20] = postemergence, visual injury vs untreated controls after approx. 10 d, 0 = no effect, 100 = complete control, read-out: Pigweed plant response rating (0 to 100 scale)
[21] = postemergence, 0 to 100 scale, 0 is no effect, 100 is complete control, read-out: Pigweed plant response rating

`CN1C[C@H](c2cccc([N+](=O)[O-])c2)[C@@H](C(=O)Nc2cccc(F)c2F)C1=O` (racemic) [Compound 776] showed a pest or weed control at 125 g/ha [1, 7] of 20%, a Corn plant response rating (crop injury, 0 = no effect, 100 = complete kill) at 125 g/ha [2, 8] of 30% and a pest or weed control at 125 g/ha [3, 9] of 20%. The pest or weed control at 125 g/ha [4, 10] was 30%, the pest or weed control at 125 g/ha [5, 11] was 0% and the pest or weed control at 125 g/ha [6, 12] was 0%.

With `C=CN1C[C@H](c2ccc(C)c(F)c2)[C@@H](C(=O)Nc2cccc(F)c2F)C1=O` (racemic) [Compound 1332] the pest or weed control at 125 g/ha ([1]; Postemergence, visual rating about 10 d after treatment, read-out: Kochia plant response rating (0 to 100 scale)) was 0%, the pest or weed control at 500 g/ha ([1]; Postemergence, 500 g ai/ha, visual injury, 0 to 100 scale (0 no effect, 100 complete control), approx. 10 d, read-out: Plant response rating, Kochia) was 0% and the plant injury at 125 g/ha ([2]; Postemergence, visual rating about 10 d after treatment) was 0%. For the same compound, the Corn plant response rating (crop injury, 0 = no effect, 100 = complete kill) at 500 g/ha ([2]; Postemergence, 500 g ai/ha, visual injury, 0 to 100 scale (0 no effect, 100 complete control), approx. 10 d) was 0%, the pest or weed control at 125 g/ha ([3]; Postemergence, visual rating about 10 d after treatment, read-out: Ryegrass, Italian plant response rating (0 to 100 scale)) was 0% and the pest or weed control at 500 g/ha ([3]; Postemergence, visual injury, 0 to 100 scale (0 no effect, 100 complete control), approx. 10 d, read-out: Plant response rating, Ryegrass, Italian) was 0%. For the same compound, the pest or weed control at 125 g/ha ([4]; Postemergence, visual rating about 10 d after treatment, read-out: Blackgrass plant response rating (0 to 100 scale)) was 0%, the pest or weed control at 500 g/ha ([4]; Postemergence, visual injury, 0 to 100 scale (0 no effect, 100 complete control), approx. 10 d, read-out: Plant response rating, Blackgrass) was 30% and the pest or weed control at 125 g/ha ([5]; Postemergence, visual rating about 10 d after treatment, read-out: Ragweed plant response rating (0 to 100 scale)) was 0%. The pest or weed control at 500 g/ha ([5]; Postemergence, visual injury, 0 to 100 scale (0 no effect, 100 complete control), approx. 10 d, read-out: Plant response rating, Ragweed) was 20%, the pest or weed control at 125 g/ha ([6]; Postemergence, visual rating about 10 d after treatment, read-out: Pigweed plant response rating (0 to 100 scale)) was 0% and the pest or weed control at 500 g/ha ([6]; Postemergence, visual injury, 0 to 100 scale (0 no effect, 100 complete control), approx. 10 d, read-out: Plant response rating, Pigweed) was 0%.

With `Cc1cc([C@H]2CNC(=O)[C@@H]2C(=O)Nc2ccccc2F)ccc1F` [Compound 717] the pest or weed control at 125 g/ha [1, 7] was 20%, the Corn plant response rating (crop injury, 0 = no effect, 100 = complete kill) at 125 g/ha [2, 8] was 0% and the pest or weed control at 125 g/ha [3, 9] was 0%. For the same compound, the pest or weed control at 125 g/ha [4, 10] was 0%, the pest or weed control at 125 g/ha [5, 11] was 0% and the pest or weed control at 125 g/ha [6, 12] was 0%.

In the case of `Cc1cc([C@H]2CNC(=O)[C@@H]2C(=O)Nc2ccc(F)cc2F)ccc1F` [Compound 718], the pest or weed control at 125 g/ha [1, 7] is reported as 30%, the Corn plant response rating (crop injury, 0 = no effect, 100 = complete kill) at 125 g/ha [2, 8] is reported as 0% and the pest or weed control at 125 g/ha [3, 9] is reported as 0%. It also gave a pest or weed control at 125 g/ha [4, 10] of 20%, a pest or weed control at 125 g/ha [5, 11] of 0% and a pest or weed control at 125 g/ha [6, 12] of 0%.

Work on `Cc1cc([C@H]2CN(C)C(=O)[C@@H]2C(=O)Nc2ccc(F)c(F)c2F)ccc1F` [Compound 719] yielded a pest or weed control at 125 g/ha [1, 7] of 60%, a Corn plant response rating (crop injury, 0 = no effect, 100 = complete kill) at 125 g/ha [2, 8] of 90% and a pest or weed control at 125 g/ha [3, 9] of 50%. The pest or weed control at 125 g/ha [4, 10] was 60%, the pest or weed control at 125 g/ha [5, 11] was 30% and the pest or weed control at 125 g/ha [6, 12] was 50%.

Compound `Cc1ccc([C@H]2CNC(=O)[C@@H]2C(=O)Nc2cccc(F)c2F)c(F)c1` [Compound 720] has a pest or weed control at 125 g/ha [1, 7] of 50%, a Corn plant response rating (crop injury, 0 = no effect, 100 = complete kill) at 125 g/ha [2, 8] of 0% and a pest or weed control at 125 g/ha [3, 9] of 0%. The pest or weed control at 125 g/ha [4, 10] was 20%, the pest or weed control at 125 g/ha [5, 11] was 0% and the pest or weed control at 125 g/ha [6, 12] was 0%.

Compound `C=CCN1C[C@H](c2ccc(OC)c(F)c2)[C@@H](C(=O)Nc2cccc(F)c2F)C1=O` [Compound 722] has a pest or weed control at 125 g/ha [1, 7] of 0%, a Corn plant response rating (crop injury, 0 = no effect, 100 = complete kill) at 125 g/ha [2, 8] of 0% and a pest or weed control at 125 g/ha [3, 9] of 0%. The pest or weed control at 125 g/ha [4, 10] was 0%, the pest or weed control at 125 g/ha [5, 11] was 0% and the pest or weed control at 125 g/ha [6, 12] was 0%.

`Cc1ccc([C@H]2CCN(C)C(=O)[C@@H]2C(=O)Nc2cccc(F)c2F)cc1` [Compound 1220] showed a plant injury at 125 g/ha [2, 13] of 30%, a plant injury at 500 g/ha ([2]; 500 g ai/ha, postemergence) of 70% and a pest or weed control at 125 g/ha [3, 14] of 20%. It also gave a pest or weed control at 500 g/ha [3, 15] of 30%, a pest or weed control at 125 g/ha [4, 16] of 30% and a pest or weed control at 500 g/ha [4, 17] of 40%. For the same compound, the pest or weed control at 125 g/ha [5, 18] was 20%, the pest or weed control at 500 g/ha [5, 19] was 30% and the pest or weed control at 125 g/ha [6, 20] was 20%. The pest or weed control at 500 g/ha [6, 21] was 20%.

`CN1CC[C@H](c2ccc(C(F)(F)F)cc2)[C@@H](C(=O)Nc2cccc(F)c2F)C1=O` [Compound 1225] was tested, and the plant injury at 125 g/ha [2, 13] was 30%, the plant injury at 500 g/ha ([2]; 500 g ai/ha, postemergence) was 90% and the pest or weed control at 125 g/ha [3, 14] was 30%. For the same compound, the pest or weed control at 500 g/ha [3, 15] was 30%, the pest or weed control at 125 g/ha [4, 16] was 30% and the pest or weed control at 500 g/ha [4, 17] was 40%. For the same compound, the pest or weed control at 125 g/ha [5, 18] was 40%, the pest or weed control at 500 g/ha [5, 19] was 50% and the pest or weed control at 125 g/ha [6, 20] was 30%. The pest or weed control at 500 g/ha [6, 21] was 40%.

`CSc1ccccc1NC(=O)[C@H]1C(=O)N(C)C[C@@H]1c1cccc(C)c1` [Compound 1232] showed a plant injury at 125 g/ha [2, 13] of 0%, a plant injury at 500 g/ha ([2]; 500 g ai/ha, postemergence) of 70% and a pest or weed control at 125 g/ha [3, 14] of 30%. For the same compound, the pest or weed control at 500 g/ha [3, 15] was 60%, the pest or weed control at 125 g/ha [4, 16] was 0% and the pest or weed control at 500 g/ha [4, 17] was 40%. The pest or weed control at 125 g/ha [5, 18] was 0%, the pest or weed control at 500 g/ha [5, 19] was 50% and the pest or weed control at 125 g/ha [6, 20] was 0%. For the same compound, the pest or weed control at 500 g/ha [6, 21] was 40%.
